Where “and” joins values, the source holds several entries; their conditions need not be identical. Equal values may be shown once. Numbers after ± are expanded uncertainties.
Conditions: Liquid, Vibrating tube method

`CCCCCCC(=O)OCC(COC(=O)CCCCCC)(COC(=O)CCCCCC)COC(=O)CCCCCC` [pentaerythritol tetraheptanoate] gave a mass density (343.15 K, 32525 kPa) of 962.8 ± 1.2 kg/m3, a mass density (343.15 K, 32544 kPa) of 962.9 ± 1.2 kg/m3 and a mass density (343.15 K, 32576 kPa) of 962.8 ± 1.2 kg/m3. For the same compound, the mass density (343.15 K, 32608 kPa) was 962.8 ± 1.2 kg/m3, the mass density (343.15 K, 32640 kPa) was 962.9 ± 1.2 kg/m3 and the mass density (343.15 K, 32679 kPa) was 962.8 ± 1.6 kg/m3. For the same compound, the mass density (343.15 K, 32711 kPa) was 963 ± 1.2 kg/m3, the mass density (343.15 K, 32736 kPa) was 963 ± 1.2 kg/m3 and the mass density (343.15 K, 32750 kPa) was 963.1 ± 1.2 kg/m3. The mass density (343.15 K, 32774 kPa) was 963.1 ± 1.2 kg/m3, the mass density (343.15 K, 32782 kPa) was 963 ± 1.2 kg/m3 and the mass density (343.15 K, 32814 kPa) was 963.1 ± 1.2 kg/m3. It also gave a mass density (343.15 K, 32815 kPa) of 963 ± 1.2 kg/m3, a mass density (343.15 K, 32853 kPa) of 963.1 ± 1.2 kg/m3 and a mass density (343.15 K, 32854 kPa) of 962.9 ± 1.2 kg/m3. The mass density (343.15 K, 32887 kPa) was 962.9 ± 1.2 kg/m3, the mass density (343.15 K, 32900 kPa) was 963.1 ± 1.2 kg/m3 and the mass density (343.15 K, 32920 kPa) was 963.1 ± 1.2 kg/m3. The mass density (343.15 K, 32940 kPa) was 963 ± 1.2 kg/m3, the mass density (343.15 K, 32953 kPa) was 963.1 ± 1.2 kg/m3 and the mass density (343.15 K, 32980 kPa) was 963 ± 1.2 kg/m3. The mass density (343.15 K, 32993 kPa) was 963.1 ± 1.2 kg/m3, the mass density (343.15 K, 33027 kPa) was 963.1 ± 1.2 kg/m3 and the mass density (343.15 K, 33028 kPa) was 963.2 ± 1.2 kg/m3. For the same compound, the mass density (343.15 K, 33060 kPa) was 963.1 ± 1.2 kg/m3, the mass density (343.15 K, 33068 kPa) was 963.1 ± 1.2 kg/m3 and the mass density (343.15 K, 33100 kPa) was 963.1 ± 1.2 kg/m3. For the same compound, the mass density (343.15 K, 33109 kPa) was 963.1 ± 1.2 kg/m3, the mass density (343.15 K, 33134 kPa) was 963.3 ± 1.2 kg/m3 and the mass density (343.15 K, 33174 kPa) was 963.3 ± 1.2 kg/m3. For the same compound, the mass density (343.15 K, 33208 kPa) was 963.4 ± 1.2 kg/m3, the mass density (343.15 K, 33242 kPa) was 963.2 ± 1.2 kg/m3 and the mass density (343.15 K, 33276 kPa) was 963.3 ± 1.2 kg/m3. The mass density (343.15 K, 33317 kPa) was 963.3 ± 1.2 kg/m3, the mass density (343.15 K, 33351 kPa) was 963.3 ± 1.2 kg/m3 and the mass density (343.15 K, 33385 kPa) was 963.4 ± 1.2 kg/m3. It also gave a mass density (343.15 K, 33425 kPa) of 963.3 ± 1.2 kg/m3, a mass density (343.15 K, 33459 kPa) of 963.4 ± 1.2 kg/m3 and a mass density (343.15 K, 33500 kPa) of 963.3 ± 1.2 kg/m3. The mass density (343.15 K, 33535 kPa) was 963.4 ± 1.2 kg/m3, the mass density (343.15 K, 33569 kPa) was 963.4 ± 1.2 kg/m3 and the mass density (343.15 K, 33604 kPa) was 963.4 ± 1.2 kg/m3. For the same compound, the mass density (343.15 K, 33645 kPa) was 963.5 ± 1.2 kg/m3, the mass density (343.15 K, 33679 kPa) was 963.4 ± 1.2 kg/m3 and the mass density (343.15 K, 33714 kPa) was 963.4 ± 1.2 kg/m3. The mass density (343.15 K, 33721 kPa) was 963.6 ± 1.2 kg/m3, the mass density (343.15 K, 33756 kPa) was 963.6 ± 1.2 kg/m3 and the mass density (343.15 K, 33772 kPa) was 963.8 ± 1.2 kg/m3. It also gave a mass density (343.15 K, 33791 kPa) of 963.6 ± 1.2 kg/m3, a mass density (343.15 K, 33816 kPa) of 963.7 ± 1.2 kg/m3 and a mass density (343.15 K, 33833 kPa) of 963.5 ± 1.2 kg/m3. The mass density (343.15 K, 33862 kPa) was 963.6 ± 1.2 kg/m3, the mass density (343.15 K, 33869 kPa) was 963.6 ± 1.2 kg/m3 and the mass density (343.15 K, 33906 kPa) was 963.5 ± 1.2 kg/m3. For the same compound, the mass density (343.15 K, 33942 kPa) was 963.6 ± 1.2 kg/m3, the mass density (343.15 K, 33949 kPa) was 963.7 ± 1.2 kg/m3 and the mass density (343.15 K, 33986 kPa) was 963.7 ± 1.2 kg/m3. For the same compound, the mass density (343.15 K, 34002 kPa) was 963.7 ± 1.2 kg/m3, the mass density (343.15 K, 34024 kPa) was 963.7 ± 1.2 kg/m3 and the mass density (343.15 K, 34048 kPa) was 963.7 ± 1.2 kg/m3. For the same compound, the mass density (343.15 K, 34062 kPa) was 963.7 ± 1.2 kg/m3, the mass density (343.15 K, 34095 kPa) was 963.8 ± 1.2 kg/m3 and the mass density (343.15 K, 34108 kPa) was 963.8 ± 1.2 kg/m3. It also gave a mass density (343.15 K, 34139 kPa) of 963.8 ± 1.2 kg/m3, a mass density (343.15 K, 34152 kPa) of 963.8 ± 1.2 kg/m3 and a mass density (343.15 K, 34166 kPa) of 963.8 ± 1.2 kg/m3. For the same compound, the mass density (343.15 K, 34187 kPa) was 963.8 ± 1.2 kg/m3, the mass density (343.15 K, 34202 kPa) was 963.9 ± 1.2 kg/m3 and the mass density (343.15 K, 34208 kPa) was 964 ± 1.2 kg/m3. For the same compound, the mass density (343.15 K, 34229 kPa) was 963.8 ± 1.2 kg/m3, the mass density (343.15 K, 34254 kPa) was 963.7 ± 1.2 kg/m3 and the mass density (343.15 K, 34259 kPa) was 963.9 ± 1.2 kg/m3. It also gave a mass density (343.15 K, 34276 kPa) of 963.7 ± 1.2 kg/m3, a mass density (343.15 K, 34290 kPa) of 964 ± 1.2 kg/m3 and a mass density (343.15 K, 34314 kPa) of 964 ± 1.2 kg/m3. The mass density (343.15 K, 34315 kPa) was 963.9 ± 1.2 kg/m3, the mass density (343.15 K, 34342 kPa) was 964 ± 1.2 kg/m3 and the mass density (343.15 K, 34365 kPa) was 963.9 ± 1.2 kg/m3 and 964.1 ± 1.2 kg/m3. For the same compound, the mass density (343.15 K, 34390 kPa) was 964 ± 1.2 kg/m3, the mass density (343.15 K, 34409 kPa) was 963.8 ± 1.2 kg/m3 and the mass density (343.15 K, 34414 kPa) was 964.1 ± 1.2 kg/m3. The mass density (343.15 K, 34444 kPa) was 964 ± 1.2 kg/m3, the mass density (343.15 K, 34469 kPa) was 963.9 ± 1.2 kg/m3 and the mass density (343.15 K, 34483 kPa) was 964 ± 1.2 kg/m3. For the same compound, the mass density (343.15 K, 34500 kPa) was 964 ± 1.2 kg/m3, the mass density (343.15 K, 34527 kPa) was 964.1 ± 1.2 kg/m3 and the mass density (343.15 K, 34534 kPa) was 964.1 ± 1.2 kg/m3. For the same compound, the mass density (343.15 K, 34556 kPa) was 964 ± 1.2 kg/m3, the mass density (343.15 K, 34566 kPa) was 964.1 ± 1.2 kg/m3 and the mass density (343.15 K, 34584 kPa) was 964.1 ± 1.2 kg/m3. For the same compound, the mass density (343.15 K, 34616 kPa) was 964.2 ± 1.2 kg/m3, the mass density (343.15 K, 34624 kPa) was 964.2 ± 1.2 kg/m3 and the mass density (343.15 K, 34625 kPa) was 964.2 ± 1.2 kg/m3. It also gave a mass density (343.15 K, 34651 kPa) of 964.1 ± 1.2 kg/m3, a mass density (343.15 K, 34654 kPa) of 964.2 ± 1.2 kg/m3 and a mass density (343.15 K, 34656 kPa) of 964.2 ± 1.2 kg/m3. For the same compound, the mass density (343.15 K, 34659 kPa) was 964.1 ± 1.2 kg/m3, the mass density (343.16 K, 100.2 kPa) was 940.6 ± 1.1 kg/m3 and the mass density (343.16 K, 100.5 kPa) was 940.7 ± 1.1 kg/m3 and 940.6 ± 1.1 kg/m3. For the same compound, the mass density (343.16 K, 100.7 kPa) was 940.6 ± 1.1 kg/m3 and 940.7 ± 1.1 kg/m3, the mass density (343.16 K, 101 kPa) was 940.7 ± 1.1 kg/m3 and the mass density (343.16 K, 101.7 kPa) was 940.6 ± 1.1 kg/m3. It also gave a mass density (343.16 K, 103.8 kPa) of 940.6 ± 1.1 kg/m3, a mass density (343.16 K, 104.7 kPa) of 940.6 ± 1.1 kg/m3 and a mass density (343.16 K, 160.8 kPa) of 940.8 ± 1.1 kg/m3. It also gave a mass density (343.16 K, 221.5 kPa) of 940.6 ± 1.1 kg/m3, a mass density (343.16 K, 300.9 kPa) of 940.7 ± 1.1 kg/m3 and a mass density (343.16 K, 1395.6 kPa) of 941.7 ± 1.1 kg/m3. The mass density (343.16 K, 1419.9 kPa) was 941.7 ± 1.1 kg/m3, the mass density (343.16 K, 4555 kPa) was 944.1 ± 1.2 kg/m3 and the mass density (343.16 K, 5039.3 kPa) was 944.4 ± 1.2 kg/m3. It also gave a mass density (343.16 K, 13687 kPa) of 950.5 ± 1.2 kg/m3.
